Results on 22 molecules are retold here after patent publication US11066414B2, “Cot modulators and methods of use thereof” (Gilead Sciences, Inc., priority 2015, dated 2021).

SMILES strings stand for the structures. Read-outs that look alike come from different tables or passages of the source.

In assay [1] the test system is TNFα. The experiment in a line: Cot Monocyte TNFα Cell Based Assay.
The target in assay [2] is Human Cot (Homo sapiens (Human), UniProt P41279). In words: High Throughput Cot Biochemical Assay. Conditions: Cot HTRF (TR-FRET) biochemical assay. On the technique in general: TR-FRET usually uses a lanthanide donor and a delayed reading to cut background.
[3] abbreviates: Homo sapiens, Monocyte, read-out: EC50 TNF, LPS-stimulated human monocytes, TNFα.
Where [4] appears, read: read-out: EC50 TNF, LPS-stimulated human monocytes, TNFα.

Sequence of Human Cot (P41279 30-397): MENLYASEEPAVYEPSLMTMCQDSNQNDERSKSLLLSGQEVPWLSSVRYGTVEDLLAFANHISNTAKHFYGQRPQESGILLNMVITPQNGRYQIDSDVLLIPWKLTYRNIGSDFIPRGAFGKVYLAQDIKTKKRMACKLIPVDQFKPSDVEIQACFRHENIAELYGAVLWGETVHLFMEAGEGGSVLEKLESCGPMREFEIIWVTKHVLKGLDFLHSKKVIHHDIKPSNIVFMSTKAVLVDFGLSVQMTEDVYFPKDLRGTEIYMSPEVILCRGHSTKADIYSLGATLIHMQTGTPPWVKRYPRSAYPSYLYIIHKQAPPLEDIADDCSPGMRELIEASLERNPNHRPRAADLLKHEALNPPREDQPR

Usually EC50 stands for the midpoint of the concentration-response curve. By IC50 is commonly meant the concentration needed to halve the response being measured. `CC(C)(C)CNc1c(C#N)cnc2c(C#N)cc(N[C@H](c3cn(C4(C(N)=O)CCC4)nn3)c3cccc4ncccc34)cc12` [Example 576, (S)-1-(4-(((3,8-dicyano-4-(neopentyl-amino)quinolin-6-yl)amino)(quinolin-5-yl)methyl)-1H-1,2,3-triazol-1-yl)cyclobutane-1-carboxamide]: the EC50 in assay [1] (setting [3]) is 433 nM. Further, in assay [2] (IC50 HTRF), half-maximal inhibition (IC50) required 1 nM.

As for `CC(C)(C)CNc1c(C#N)cnc2c(C#N)cc(N[C@H](c3cn(C4(C#N)CC4)nn3)c3cccc4ncccc34)cc12` [Example 577, (S)-6-(((1-(1-cyanocyclopropyl)-1H-1,2,3-triazol-4-yl)(quinolin-5-yl)methyl)amino)-4-(neopentylamino)-quinoline-3,8-dicarbonitrile], the EC50 in assay [1] (setting [3]) amounted to 49 nM. This molecule also registered a half-maximal inhibitory concentration (IC50) in assay [2] (IC50 HTRF) of 1 nM.

As to `CC(C)(C)CNc1c(C#N)cnc2c(C#N)cc(N[C@H](c3cn(C4(C)CC4)nn3)c3cccc4ncccc34)cc12` [Example 578, (S)-6-(((1-(1-methylcyclopropyl)-1H-1,2,3-triazol-4-yl)(quinolin-5-yl)methyl)amino)-4-(neopentylamino)quinoline-3,8-dicarbonitrile], in assay [1] (setting [3]), the concentration for a half-maximal effect (EC50) stood at 32 nM. The molecule further yielded a half-maximal inhibitory concentration (IC50) in assay [2] (IC50 HTRF) of 2 nM.

For `Cc1nc(F)ccc1[C@H](Nc1cc(Cl)c2ncc(C#N)c(NCC(C)(C)C)c2c1)c1cn([C@@H]2C[C@@H]2F)nn1` [Example 579, 8-chloro-6-(((S)-(6-fluoro-2-methylpyridin-3-yl)(1-((lR,2S)-2-fluorocyclopropyl)-1H-1,2,3-triazol-4-yl)methyl)amino)-4-(neopentylamino)quinoline-3-carbonitrile], the EC50 in assay [1] (setting [4]) turned out to be 24 nM. In addition, the 50% inhibitory concentration (IC50) in assay [2] (read-out: IC50 HTRF) came to 2 nM.

For the molecule `CC(C)(C)CNc1c(C#N)cnc2c(C#N)cc(N[C@H](c3cn(C4(C#N)CC4)nn3)c3cccc4cnccc34)cc12` [Example 580, (S)-6-(((1-(1-cyanocyclopropyl)-1H-1,2,3-triazol-4-yl)(isoquinolin-5-yl)methyl)amino)-4-(neopentylamino)-quinoline-3,8-dicarbonitrile], in assay [1] (setting [3]), the concentration giving a half-maximal response (EC50) was determined as 84 nM. In addition, it took 2 nM to reach half-maximal inhibition in assay [2] (IC50 HTRF) (IC50).

For `CC(C)(C)CNc1c(C#N)cnc2c(C#N)cc(N[C@H](c3cn(C4(C)CC4)nn3)c3cccc4cnccc34)cc12` [Example 581, (S)-6-((isoquinolin-5-yl(1-(1-methylcyclo-propyl)-1H-1,2,3-triazol-4-yl)methyl)amino)-4-(neopentylamino)quinoline-3,8-dicarbonitrile], the EC50 in assay [1] (setting [3]) was 32 nM. Also, in assay [2] (IC50 HTRF), the half-inhibitory concentration (IC50) worked out at 2 nM.

On to `Cc1nc(F)ccc1[C@H](Nc1cc(C#N)c2ncc(C#N)c(N[C@H](C)C(C)(C)C)c2c1)c1cn(C2(C(F)(F)F)CC2)nn1` [Example 583, 4-(((R)-3,3-dimethylbutan-2-yl)amino)-6-(((S)-(6-fluoro-2-methylpyridin-3-yl)(1-(1-(trifluoromethyl)cyclopropyl)-1H-1,2,3-triazol-4-yl)methyl)amino)quinoline-3,8-dicarbonitrile], for which the EC50 in assay [1] (setting [3]) was determined as 121 nM. The IC50 in assay [2] (IC50 HTRF) was 4 nM.

Regarding `CC(C)(C)CNc1c(C#N)cnc2c(C#N)cc(N[C@H](c3cn(C4(C(N)=O)CC4)nn3)c3cccc4cnccc34)cc12` [Example 586, (S)-1-(4-(((3,8-dicyano-4-(neopentylamino)-quinolin-6-yl)atnino)(isoquinolin-5-yl)methyl)-1H-1,2,3-triazol-yl)cyclopropane-1-carboxamide], the 50% effective concentration (EC50) in assay [1] (setting [4]) came out at 1000 nM. Besides, in assay [2] (read-out: IC50 HTRF), the IC50 came to 2 nM.

`CC(C)(C)CNc1c(C#N)cnc2c(C#N)cc(N[C@H](c3cn(C4(C(N)=O)CCC4)nn3)c3cccc4cnccc34)cc12` [Example 587, (S)-1-(4-(((3,8-dicyano-4-(neopentylamino)-quinolin-6-yl)amino)(isoquinolin-5-yl)methyl)-1H-1,2,3-triazol-1-yl)cyclobutane-1-carboxamide]: in assay [1] (setting [3]), the EC50 came to 489 nM. In addition, the 50% inhibitory concentration (IC50) in assay [2] (IC50 HTRF) is 1 nM.

Take `Cc1nc(F)ccc1[C@H](Nc1cc(Cl)c2ncc(C#N)c(NC3CCCCC3)c2c1)c1cn(C2(C(F)(F)F)CC2)nn1` [Example 588, (S)-8-chloro-4-(cyclohexylamino)-6-(((6-fluoro-2-methylpyridin-3-yl)(1-(1-(trifluoromethyl)cyclopropyl)-1H-1,2,3-triazol-4-yl)methyl)amino)quinoline-3-carbonitrile]: in assay [1] (setting [3]), the EC50 turned out to be 629 nM. The half-inhibitory concentration (IC50) in assay [2] (IC50 HTRF) came out at 55 nM.

For `Cc1nc(F)ccc1[C@H](Nc1cc(C#N)c2ncc(C#N)c(NCC(C)(C)C)c2c1)c1cn(C(C)(C)C(F)F)nn1` [Example 590, (S)-6-(((1-(1,1-difluoro-2-methylpropan-2-yl)-1H-1,2,3-triazol-4-yl)(6-fluoro-2-methylpyridin-3-yl)methyl)amino)-4-(neopentylamino)-quinoline-3,8-dicarbonitrile], in assay [1] (setting [3]), the EC50 is 57 nM. This molecule also had an IC50 in assay [2] (IC50 HTRF) of 3 nM.

In the case of `Cc1nc(F)ccc1[C@H](Nc1cc(C#N)c2ncc(C#N)c(NCC(C)(C)C)c2c1)c1cn(C(C)(C)C(F)(F)F)nn1` [Example 591, (S)-6-(((6-fluoro-2-methylpyridin-3-yl)(1-(1,1,1-trifluoro-2-methylpropan-2-yl)-1H-1,2,3-triazol-4-yl)methyl)amino)-4-(neopentylamino)quinoline-3,8-dicarbonitrile], the EC50 in assay [1] (setting [3]) is 106 nM. The IC50 in assay [2] (IC50 HTRF) stood at 5 nM.

Turning to `CCc1nc(F)ccc1[C@H](Nc1cc(Cl)c2ncc(C#N)c(NCC(C)(C)C)c2c1)c1cn(C2(C(F)F)CC2)nn1` [Example 592, (S)-8-chloro-6-(((1-(1-(difluoromethyl)cyclo-propyl)-1H-1,2,3-triazol-4-yl)(2-ethyl-6-fluoropyridin-3-yl)methyl)amino)-4-(neopentylamino)quinoline-3-carbonitrile], in assay [1] (setting [3]), the EC50 turned out to be 78 nM. Besides, in assay [2] (IC50 HTRF), the half-maximal inhibitory concentration (IC50) came to 5 nM.

For `CCc1nc(F)ccc1[C@H](Nc1cc(Cl)c2ncc(C#N)c(NCC(C)(C)C)c2c1)c1cn(C2(C(F)(F)F)CC2)nn1` [Example 593, (S)-8-chloro-6-(((2-ethyl-6-fluoropyridin-3-yl)(1-(1-(trifluoromethyl)cyclopropyl)-1H-1,2,3-triazol-4-yl)methyl)amino)-4-(neopentylamino)quinoline-3-carbonitrile], the half-maximal effective concentration (EC50) in assay [1] (setting [3]) turned out to be 298 nM. In assay [2] (IC50 HTRF), this molecule returned a 50% inhibitory concentration (IC50) of 8 nM.

For `CC(C)(C)CNc1c(C#N)cnc2c(Cl)cc(N[C@H](c3cn(C4(CF)CC4)nn3)c3cccc4ccncc34)cc12` [Example 594, (S)-8-chloro-6-(((1-(1-(fluoromethyl)cyclopropyl)-1H-1,2,3-triazol-4-yl)(isoquinolin-8-yl)methyl)amino)-4-(neopentylamino)quinoline-3-carbonitrile], the concentration giving a half-maximal response (EC50) in assay [1] (setting [3]) turned out to be 33 nM. For the same molecule, half-maximal inhibition in assay [2] (IC50 HTRF) (IC50) required 2 nM.

Consider `COc1cc(N[C@H](c2cn(C3(C(F)(F)F)CC3)nn2)c2ccc(F)nc2C)cc2c(NCC(C)(C)C)c(C#N)cnc12` [Example 595, (S)-6-(((6-fluoro-2-methylpyridin-3-yl)(1-(1-(trifluoromethyl)cyclopropyl)-1H-1,2,3-triazol-4-yl)methyl)amino)-8-methoxy-4-(neopentylamino)quinoline-3-carbonitrile], for which the EC50 in assay [1] (setting [3]) turned out to be 1000 nM. Moreover, the IC50 in assay [2] (IC50 HTRF) stood at 209 nM.

In the case of `COc1cc(N[C@H](c2cn(C3(C#N)CC3)nn2)c2ccc(F)nc2C)cc2c(NCC(C)(C)C)c(C#N)cnc12` [Example 596, (S)-6-(((1-(1-cyanocyclopropyl)-1H-1,2,3-triazol-4-yl)(6-fluoro-2-methylpyridin-3-yl)methyl)amino)-8-methoxy-4-(neopentylamino)quinoline-3-carbonitrile], the concentration for a half-maximal effect (EC50) in assay [1] (setting [3]) was 826 nM. In assay [2] (IC50 HTRF), this molecule registered an IC50 of 79 nM.

In the case of `CCc1nc(F)ccc1[C@H](Nc1cc(C#N)c2ncc(C#N)c(NCC(C)(C)C)c2c1)c1cn(C2(C(F)F)CC2)nn1` [Example 597, (S)-6-(((1-(1-(difluoromethyl)cyclopropyl)-1H-1,2,3-triazol-4-yl)(2-ethyl-6-fluoropyridin-3-yl)methyl)amino)-4-(neopentylamino)quinoline-3,8-dicarbonitrile], the EC50 in assay [1] (setting [3]) came out at 150 nM. For the same molecule, in assay [2] (IC50 HTRF), the IC50 worked out at 3 nM.

Take `CCc1nc(F)ccc1[C@H](Nc1cc(C#N)c2ncc(C#N)c(NCC(C)(C)C)c2c1)c1cn(C2(C(F)(F)F)CC2)nn1` [Example 598, (S)-6-(((2-ethyl-6-fluoropyridin-3-yl)(1-(1-(trifluoromethyl)cyclopropyl)-1H-1,2,3-triazol-4-yl)methyl)amino)-4-(neopentylamino)-quinoline-3,8-dicarbonitrile]: the EC50 in assay [1] (setting [3]) came to 198 nM. Besides, half-maximal inhibition in assay [2] (IC50 HTRF) (IC50) required 5 nM.

On to `CCc1ncccc1[C@H](Nc1cc(Cl)c2ncc(C#N)c(NCC(C)(C)C)c2c1)c1cn(C2(C(F)(F)F)CC2)nn1` [Example 600, (S)-8-chloro-6-(((2-ethylpyridin-3-yl)(1-(1-(trifluoromethyl)cyclopropyl)-1H-1,2,3-triazol-4-yl)methyl)amino)-4-(neopentylamino)quinoline-3-carbonitrile], for which, in assay [1] (setting [3]), the EC50 was determined as 113 nM. It took 5 nM to reach half-maximal inhibition in assay [2] (IC50 HTRF) (IC50).

As for `Cc1nc(F)ccc1[C@H](Nc1cc(C#N)c2ncc(C#N)c(NCC(C)(C)C)c2c1)c1cn(Cc2c(F)cccc2F)nn1` [Example 601, (S)-6-(((1-(2,6-difluorobenzyl)-1H-1,2,3-triazol-4-yl)(6-fluoro-2-methylpyridin-3-yl)methyl)amino)-4-(neopentylamino)quinoline-3,8-dicarbonitrile], in assay [1] (setting [3]), the 50% effective concentration (EC50) came out at 32 nM. Half-maximal inhibition in assay [2] (IC50 HTRF) (IC50) required 4 nM.

For the molecule `CCc1ncccc1[C@H](Nc1cc(C#N)c2ncc(C#N)c(NCC(C)(C)C)c2c1)c1cn(C2(C(F)(F)F)CC2)nn1` [Example 602, (S)-6-(((2-ethylpyridin-3-yl)(1-(1-(trifluoro-methyl)cyclopropyl)-1H-1,2,3-triazol-4-yl)methyl)amino)-4-(neopentylamino)-quinoline-3,8-dicarbonitrile], the 50% effective concentration (EC50) in assay [1] (setting [3]) was determined as 69 nM. For the same molecule, inhibition in assay [2] (IC50 HTRF) was half-maximal at 3 nM (IC50).
